# Experimental data taken from ChEMBL document CHEMBL1201862, “PubChem BioAssay data set” (2004).
# Calls of active or inactive are those of the source.
# Columns and labels:
# [1] = Luminescence Cell-Based Dose Retest to Confirm Inhibitors of Cancer Stem Cells. [Related pubchem assays (depositor defined):AID2717, AID2721]; assay type: functional; conditions: Homo sapiens
# [2] = Fluorescence-based cell-based high throughput dose response assay for inhibitors of the interaction of nucleotide-binding oligomerization domain containing 2 (NOD2) and the receptor-interacting serine-threonine kinase 2 (RIPK2).; assay type: functional; conditions: Homo sapiens
# [3] = viability inhibitors of stage V gametocytes – luminescence, dose response (AID 1117278); assay type: functional, cell-based;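 also: gametocytes exposed to compound for 24 hours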
# [4] = viability loss in human Jurkat cells – cell-based, luminescence, cytotoxicity control for P. falciparum gametocyte viability project, dose response (AID 1117277); assay type: functional;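 also: potency reflects loss of cellular ATP meaning fewer viable cells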
# [5] = molecular target: T1, Sentrin-specific protease 8 (Homo sapiens, UniProt Q96LD8); assay type: functional
# T1 sequence (Q96LD8 whole entry): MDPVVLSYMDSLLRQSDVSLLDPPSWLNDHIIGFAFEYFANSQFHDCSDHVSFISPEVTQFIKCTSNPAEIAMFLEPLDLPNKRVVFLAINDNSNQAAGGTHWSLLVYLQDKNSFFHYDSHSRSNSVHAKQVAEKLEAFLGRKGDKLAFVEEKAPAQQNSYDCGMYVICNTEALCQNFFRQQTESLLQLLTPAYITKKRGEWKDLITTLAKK
# [6] = molecular target: T1, Sentrin-specific protease 8; assay type: functional; remark: listed apart in the source
# [7] = molecular target: NAD-dependent protein deacylase sirtuin-5, mitochondrial (Homo sapiens, UniProt Q9NXA8); assay: sirtuin-5 deacylation blockers, concentration series – biochemical, fluorescence imaging, cherry-pick, set 5, dose response (AID 720591);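 also: desuccinylation of succinyl peptide AMC substrate read as fluorescence after trypsin release; potency of inhibitors that lower fluorescence and may act on trypsin instead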
# NAD-dependent protein deacylase sirtuin-5, mitochondrial, sequence (Q9NXA8 whole entry): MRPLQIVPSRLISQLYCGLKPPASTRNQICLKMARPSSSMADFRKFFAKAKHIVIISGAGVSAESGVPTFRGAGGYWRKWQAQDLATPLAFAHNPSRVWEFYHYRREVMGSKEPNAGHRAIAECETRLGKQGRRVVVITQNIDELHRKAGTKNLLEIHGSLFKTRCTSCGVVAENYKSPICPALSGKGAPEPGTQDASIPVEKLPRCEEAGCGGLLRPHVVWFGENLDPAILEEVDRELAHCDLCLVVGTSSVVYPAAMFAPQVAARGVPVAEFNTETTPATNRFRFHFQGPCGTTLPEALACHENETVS
# Cysteine protease ATG4B = molecular target: T2, Cysteine protease ATG4B (Homo sapiens, UniProt Q9Y4P1); assay type: functional;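 also: Fluorescence-based dose-response confirmation assay measuring inhibition of ATG4B activity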
# T2 sequence (Q9Y4P1 whole entry): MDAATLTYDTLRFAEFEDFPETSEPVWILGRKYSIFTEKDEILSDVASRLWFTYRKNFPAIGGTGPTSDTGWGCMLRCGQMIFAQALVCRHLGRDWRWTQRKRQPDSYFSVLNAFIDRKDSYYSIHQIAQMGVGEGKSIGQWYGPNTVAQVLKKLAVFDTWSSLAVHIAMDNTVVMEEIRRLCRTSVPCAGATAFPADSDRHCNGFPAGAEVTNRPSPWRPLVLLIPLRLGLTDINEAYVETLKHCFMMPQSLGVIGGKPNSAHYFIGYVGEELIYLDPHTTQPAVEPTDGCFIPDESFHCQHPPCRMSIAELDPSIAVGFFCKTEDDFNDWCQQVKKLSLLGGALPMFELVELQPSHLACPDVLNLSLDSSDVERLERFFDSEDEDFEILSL
# [8] = molecular target: Heat shock protein HSP 90-alpha (Homo sapiens, UniProt P07900); assay type: functional, organism-based
# Phospholipase A2 = Phospholipase A2 (Homo sapiens, UniProt P04054); assay type: functional;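 also: confirmatory dose-response counterscreen on phospholipase A2, testing hits that came from an ultra-high-throughput screen for ATG4B inhibitors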
# Phospholipase A2, sequence (P04054 whole entry): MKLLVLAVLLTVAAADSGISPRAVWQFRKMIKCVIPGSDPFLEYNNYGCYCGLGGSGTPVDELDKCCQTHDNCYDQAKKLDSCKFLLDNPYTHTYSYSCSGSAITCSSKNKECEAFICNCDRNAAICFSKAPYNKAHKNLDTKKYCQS
# [9] = molecular target: T3, Mannose-6-phosphate isomerase (Homo sapiens, UniProt P34949); assay: MPI inhibition at elevated mannose 6-phosphate – biochemical, fluorescence intensity, high mannose 6-phosphate, primary screen (AID 1220)
# T3 sequence (P34949 whole entry): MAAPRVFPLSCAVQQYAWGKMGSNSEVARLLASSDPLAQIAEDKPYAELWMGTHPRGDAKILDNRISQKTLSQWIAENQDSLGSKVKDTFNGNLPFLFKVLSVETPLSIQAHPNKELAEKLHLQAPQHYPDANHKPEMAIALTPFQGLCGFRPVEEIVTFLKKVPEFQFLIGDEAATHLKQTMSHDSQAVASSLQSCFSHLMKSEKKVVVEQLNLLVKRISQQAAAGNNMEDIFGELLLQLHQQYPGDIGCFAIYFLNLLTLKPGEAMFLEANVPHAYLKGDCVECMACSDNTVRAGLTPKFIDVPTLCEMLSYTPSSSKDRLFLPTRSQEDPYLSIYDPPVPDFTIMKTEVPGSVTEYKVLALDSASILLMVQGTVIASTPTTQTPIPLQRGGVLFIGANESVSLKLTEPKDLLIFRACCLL
# [10] = molecular target: T4, Rac GTPase-activating protein 1 (Homo sapiens, UniProt Q9H0H5); assay: blockers of MgcRacGAP-driven Rac1 GTP hydrolysis – biochemical, ADP Hunter fluorescence, primary and confirmatory, confirmation (AID 624330); assay type: functional
# T4 sequence (Q9H0H5 whole entry): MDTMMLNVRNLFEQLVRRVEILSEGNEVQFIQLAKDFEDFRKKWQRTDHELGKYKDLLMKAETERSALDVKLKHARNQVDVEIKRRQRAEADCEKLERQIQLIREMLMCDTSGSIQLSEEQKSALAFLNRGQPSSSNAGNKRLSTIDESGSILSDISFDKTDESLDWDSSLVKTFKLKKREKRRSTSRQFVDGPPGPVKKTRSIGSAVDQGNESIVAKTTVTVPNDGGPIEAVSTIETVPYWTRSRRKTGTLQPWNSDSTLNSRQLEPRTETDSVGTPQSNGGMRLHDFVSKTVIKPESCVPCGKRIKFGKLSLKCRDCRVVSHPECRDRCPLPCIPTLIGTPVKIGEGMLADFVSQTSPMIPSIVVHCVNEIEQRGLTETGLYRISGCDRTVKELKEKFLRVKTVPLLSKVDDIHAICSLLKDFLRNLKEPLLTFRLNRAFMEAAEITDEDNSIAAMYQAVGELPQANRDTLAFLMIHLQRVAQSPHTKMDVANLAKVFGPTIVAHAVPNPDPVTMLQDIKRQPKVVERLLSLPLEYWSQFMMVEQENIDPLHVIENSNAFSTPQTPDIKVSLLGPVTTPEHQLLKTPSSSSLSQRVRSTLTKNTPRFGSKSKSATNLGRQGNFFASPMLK
# HEK293 [11] = assay: EBV LMP1 TES2 canonical NF-kB signalling blockers – cell-based, HEK293, luciferase, cherry-pick, dose response (AID 588343); assay type: functional; conditions: Homo sapiens
# HEK293 [12] = assay: cells; assay type: functional, cell-based; conditions: Homo sapiens
# [13] = molecular target: T5, Nuclear receptor subfamily 0 group B member 1 (Homo sapiens, UniProt P51843); assay: Luminescence-based cell-based high throughput dose response assay for inhibitors of the orphan nuclear receptor subfamily 0, group B, member 1 (DAX1; NR0B1). [Related pubchem assays (depositor defined):AID504766, AID504790]; assay type: functional
# T5 sequence (P51843 whole entry): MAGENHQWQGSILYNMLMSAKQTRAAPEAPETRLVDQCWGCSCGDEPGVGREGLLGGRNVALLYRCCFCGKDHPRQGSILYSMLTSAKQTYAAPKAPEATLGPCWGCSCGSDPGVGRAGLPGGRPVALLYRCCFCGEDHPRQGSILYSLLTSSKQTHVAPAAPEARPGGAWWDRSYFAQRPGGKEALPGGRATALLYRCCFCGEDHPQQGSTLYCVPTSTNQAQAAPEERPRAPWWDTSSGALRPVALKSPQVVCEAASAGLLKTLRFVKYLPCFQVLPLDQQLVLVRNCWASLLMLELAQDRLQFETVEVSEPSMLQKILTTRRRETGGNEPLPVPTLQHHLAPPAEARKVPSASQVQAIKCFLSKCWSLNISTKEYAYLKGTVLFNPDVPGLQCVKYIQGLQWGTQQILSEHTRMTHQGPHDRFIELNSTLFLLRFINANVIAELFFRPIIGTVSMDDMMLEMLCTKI
# Vero = assay: viability loss in Vero cells – cell-based, plate reader, cherry-pick samples, cytotoxicity control, dose response (AID 687020); assay type: functional; conditions: Chlorocebus sabaeus
# [14] = reduction of Shn3 3'UTR-driven luciferase in osteoblasts – cell-based, Clone20 osteoblasts, firefly luciferase, cherry-picked, dose response (AID 624132); assay type: functional;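 also: firefly luciferase luminescence from reporter carrying the Shn3 3'UTR in osteoblasts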
# [15] = loss of viability in HepG2 cells – cell-based, CellTiter-Glo, cherry-picked, cytotoxicity control for Shn3 inhibitor project, dose response (AID 624134); assay type: functional
# [16] = non-specific 3'UTR reporter inhibition in Clone20-Shn3RL – cell-based, Renilla luciferase, cherry-picked, counter-screen for Shn3 inhibitor project, dose response (AID 624133); assay type: functional
# Paired box protein Pax-8 = Paired box protein Pax-8 (Homo sapiens, UniProt Q06710); assay: PAX8 transcriptional activity inhibition in RMG-I – RMG-I cells, luciferase, cherry-pick, dose response (AID 687027); assay type: functional, cell-based;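 also: luciferase reporter driven by Pax8 target thyroperoxidase promoter measured by SteadyGlo luminescence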
# Paired box protein Pax-8, sequence (Q06710 whole entry): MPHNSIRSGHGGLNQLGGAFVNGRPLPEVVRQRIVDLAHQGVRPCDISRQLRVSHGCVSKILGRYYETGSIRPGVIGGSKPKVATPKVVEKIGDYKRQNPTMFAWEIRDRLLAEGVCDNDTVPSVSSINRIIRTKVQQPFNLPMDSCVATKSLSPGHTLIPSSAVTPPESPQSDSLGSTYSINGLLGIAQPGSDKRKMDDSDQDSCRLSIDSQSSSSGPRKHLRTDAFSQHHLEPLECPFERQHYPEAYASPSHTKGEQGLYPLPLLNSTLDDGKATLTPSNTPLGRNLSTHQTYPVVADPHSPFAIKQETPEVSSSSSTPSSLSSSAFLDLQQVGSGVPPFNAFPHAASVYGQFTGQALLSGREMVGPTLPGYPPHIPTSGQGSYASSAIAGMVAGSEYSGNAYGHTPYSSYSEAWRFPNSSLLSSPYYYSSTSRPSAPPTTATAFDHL
# [17] = viability loss in HeLa cells – cytotoxicity control for MgcRacGAP inhibitor project, dose response (AID 624300); assay type: functional
# [18] = A549 cell cytotoxicity, dose response, cytotoxicity control, plate reader, cherry-pick, antagonist series (AID 743412); assay type: functional, cell-based
# [19] = toxicity toward HepG2 liver cells – cell-based, plate reader, cherry-pick, antagonist series, cytotoxicity control, dose response (AID 743416); assay type: functional
# [20] = blockers of bursicon-stimulated LGR2 cAMP reporter – cell-based, HEK293, CRE-luciferase reporter, cherry pick, set 2, dose response (AID 743343); assay type: functional;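 also: transfected cells were stimulated with diluted bursicon conditioned medium after compound addition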
# [21] = blockade of melanocortin 4 receptor signaling – cell-based, plate reader, cherry pick, counter-screen for LGR2 antagonist project, dose response (AID 743444); assay type: functional;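 also: transfected HEK 293 cells stimulated with alpha-MSH peptide; potency of inhibitors of the alpha-MSH evoked signal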
# [22] = rise of 2N DNA cells, HeLa – IC50, dose response (AID 1117349); assay type: functional, cell-based
# [23] = rise of 4N DNA cells, HeLa – IC50, dose response (AID 1117351); assay type: functional, cell-based
smiles,measurement,setting,value
O=C(CN(c1cccc(C(F)(F)F)c1)S(=O)(=O)c1ccc(Cl)c([N+](=O)[O-])c1)NCc1ccc(F)cc1,AC50,[1],1.81 µM (active)
same,IC50,[2],5.86 µM (active)
SC1=NC[C@H](c2ccccc2)N1CCCCC1CCCCC1,IC50,[3],> 109 µM (inactive)
same,IC50,[4],79.3 µM (inactive)
CCN(CC)CC(=O)Nc1ccc2c(c1)N(C(=O)CN(CC)CC)c1ccccc1CC2,IC50,[5],19.1 µM (active)
same,IC50,[6],15.4 µM (active)
COc1cccc(-n2c(SCC(N)=O)nnc2-c2ccco2)c1,AC50,[7],22.1 µM (active)
Oc1ccc(N=Nc2nc(-c3ccccc3)c(-c3ccccc3)[nH]2)cc1,AC50,[1],3.9 µM (active)
same,IC50,Cysteine protease ATG4B,9.13 µM (active)
same,AC50,[8],4.75 µM (active)
same,IC50,Phospholipase A2,6.36 µM (active)
COc1ccc2c(c1)-c1nc(N)sc1CC2,IC50,[9],23.8 µM (active)
same,IC50,[10],29.5 µM (active)
CC(NC(=O)CCc1nnc(CCCc2ccccc2)o1)c1ccccc1 (stereo not given),IC50,[3],> 109 µM (inactive)
same,IC50,[4],> 83.3 µM (inactive)
Cc1cc(C)nc(N=C(Nc2ccccc2Br)NS(=O)(=O)Cc2ccccc2)n1,AC50,HEK293 [11],33.5 µM (active)
O=C(Nc1ccccc1)C(Cl)C(=O)c1ccccc1 (stereo not given),AC50,[8],0.786 µM (active)
COc1ccc(S(=O)(=O)NCc2ccc(C(=O)NCc3cccnc3)cc2)cc1,IC50,[3],> 109 µM (inactive)
same,IC50,[4],> 83.3 µM (inactive)
O=C(CCc1nc2ccccc2[nH]1)N1CCc2ccccc2C1,IC50,[5],> 100 µM (inactive)
same,IC50,[6],17.6 µM (active)
O=C(NNC(=O)c1ccccc1O)c1ccc(Br)cc1,IC50,HEK293 [12],> 67.5 µM (inactive)
same,IC50,[13],> 67.5 µM (inactive)
CCCCC(=O)/N=C(\N)Nc1nc2ccccc2o1,IC50,HEK293 [12],> 67.6 µM (inactive)
same,IC50,[13],> 67.6 µM (inactive)
CC(C)(C)OC(=O)NCCCCCNC(=O)c1[nH]cnc1C(=O)N1CCc2ccccc2C1,IC50,[5],> 100 µM (inactive)
same,IC50,[6],14.9 µM (active)
Cc1cccc(COC(=O)CCCNC(=O)c2ccc(Cl)cc2)c1,AC50,[8],8.04 µM (active)
O=C1c2ccccc2[C@@H]2C[C@@H](O)[C@H](Nc3cccc4ccccc34)CCN12,AC50,Vero,29.8 µM (active)
O=C(O)c1ccc(CNCc2cccc(Cl)c2)cc1,AC50,[7],> 30 µM (inactive)
O=C(NN=Cc1ccc(N(CCCl)CCCl)cc1Cl)c1cccnc1,AC50,HEK293 [11],1.26 µM (active)
CC(CNC(=O)Cn1ccc(NC(=O)OCc2ccccc2)nc1=O)c1ccccc1 (stereo not given),AC50,Vero,24.6 µM (active)
CC(OC(=O)c1ccc2c(=O)n3c(nc2c1)CCC3)C(=O)NC1CCCCC1C (stereo not given),AC50,Vero,31.1 µM (active)
CCOc1ccc(NC(=O)COC(=O)Cc2ccsc2)cc1,AC50,[7],22.3 µM (active)
C=C1C(=O)[C@]23C[C@H]1CCC2[C@]1(C)CCC[C@@](C)(C(=O)O)C1C[C@@H]3O (stereo not given in full),AC50,[14],1.2 µM (active)
same,AC50,[15],> 70 µM (inactive)
same,AC50,[16],8.47 µM (active)
same,IC50,[2],7.03 µM (active)
same,AC50,Paired box protein Pax-8,1.77 µM (active)
O=c1c(-c2ccccc2)c[nH]n1-c1cccc([N+](=O)[O-])c1,IC50,HEK293 [12],> 67.5 µM (inactive)
same,IC50,[13],> 67.5 µM (inactive)
same,CC50,[17],100 µM (active)
same,IC50,[10],48.4 µM (active)
C[C@H]1CN([C@@H](C)CO)C(=O)c2cccc(NC(=O)NC3CCCCC3)c2O[C@@H]1CN(C)Cc1ccc(C(F)(F)F)cc1,AC50,[18],19.2 µM (active)
same,AC50,[19],26.4 µM (active)
same,AC50,[20],46.4 µM (active)
same,AC50,[21],17.1 µM (active)
CC(C)=CCC/C(C)=C/CC/C(C)=C/C(=O)OCC(=O)[C@@]1(O)CC[C@H]2[C@@H]3CCC4=CC(=O)C=C[C@]4(C)[C@H]3[C@@H](O)C[C@@]21C,IC50,[22],> 10 µM (inactive)
same,IC50,[23],> 10 µM (inactive)
O=C(CNc1cccc2ccccc12)N/N=C/c1ccc(OC(=O)/C=C/c2ccco2)cc1,IC50,[9],> 50 µM (not active)
